Results as given in US8852634B2, “Dosage formulation” (Hoffmann-La Roche Inc., priority 2005, dated 2014).
Where two headings read alike, the source gives them in different places.

Experiment: Solubility of the crystalline compounds in aqueous media
Assay type: physicochemical

Work on Cc1ccccc1-c1cc(N2CCOCC2)ncc1N(C)C(=O)C(C)(C)c1cc(C(F)(F)F)cc(C(F)(F)F)c1 [2-(3,5-bis-trifluoromethyl-phenyl)-N-methyl-N-(6-morpholin-4-yl-4-o-tolyl-pyridin-3-yl)-isobutyramide] yielded a solubility (aqueous buffer solutions of pH 3.0-7.0, read-out: solubility in aqueous buffer solutions) of less than 0.1 µg/mL and a solubility (water, 'above noted insolubilities', read-out: solubility in water) of less than 0.1 µg/mL.
